“Also recorded” adds a separate entry of the source. Where two headings read alike, the source gives them in different places. Each block holds one compound with its values, some of them ahead of it.
What was measured:
[1] = test system: bovine pigmented ciliary epithelial (PE) cells; test: Cell volume (shrinkage) of PE cells in isoosmotic suspension, Coulter Counter; format: cell-based
[2] = test system: bovine PE cells, Cl− currents; test: Ruptured-patch whole-cell recording of PE cells; format: cell-based
Excerpt: Harvested cultured PE cells were resuspended and permitted to settle and attach to glass coverslips, which were then transferred to a perfusion chamber (Carré et al., supra., 1997). Solutions were designed to isolate any Cl^- current activated by ATP. […] (Am. J. Physiol., 261:[…]-[…], 1991), as previously described (Carré et al., supra., 1997). Cells were patched while still round, usually one day after dissociation. […] Data were acquired at 1 kHz using Axopatch-1B electronics and associated headstage (Axon Instruments, Foster City, Calif.) and filtered at 500 Hz with a Bessel filter. The micropipettes were double-pulled from Corning No. 7052 glass, coated with Sylgard and fire polished. The membrane potential was held without series-resistance compensation at 0 mV and stepped to voltages over the range from -100 to +100 mV in 20 mV increments for 200 msec periods. The mean current measured between 150-200 msec was used to obtain the patch-clamp data used here. The data presented in FIG. 2 was obtained at -60 mV [the approximate membrane potential (Green et al., Invest. Ophthalmol. Vis. Sci., 26:371-381, 1985)] to facilitate comparison with the volumetric data.

human A3 receptor [3] = biological target: T1, human A3 receptor (Homo sapiens, UniProt P0DMS8); test: Adenylate cyclase assay, CHO cell membranes, forskolin stimulated; format: biochemical
T1 sequence (P0DMS8 1-318): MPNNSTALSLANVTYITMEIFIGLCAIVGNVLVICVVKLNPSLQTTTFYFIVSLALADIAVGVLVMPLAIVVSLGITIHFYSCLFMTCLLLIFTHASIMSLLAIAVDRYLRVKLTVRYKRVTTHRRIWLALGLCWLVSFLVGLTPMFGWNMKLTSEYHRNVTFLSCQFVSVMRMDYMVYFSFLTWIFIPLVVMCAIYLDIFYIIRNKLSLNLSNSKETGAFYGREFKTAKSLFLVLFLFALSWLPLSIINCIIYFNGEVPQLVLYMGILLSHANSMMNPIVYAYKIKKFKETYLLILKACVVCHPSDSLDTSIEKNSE

Water solubility = format: physicochemical; conditions: room temperature
Method: 100 μL of de-ionized water was saturated with 5 mg 11 with heating. After cooling to room temperature and the disappearance of turbidity, 50 μL of the clear supernatant was withdrawn and lyophilized to give 1.1 mg of 11.

human A3 receptor [4] = biological target: T1, human A3 receptor; test: Radioligand binding, [125I]AB-MECA, HEK-293 cell membranes; set-up: host or cells: HEK-293; conditions: read-out: Ki(hA3)
Method: Natl. Acad. Sci. […] Natl. Acad. Sci. U.S.A. 89:7432-7436, 1992) was performed as described at 4° C. (Olah et al., Mol. Pharmacol. 45:978-982, 1994). The assay medium consisted of a buffer containing 10 mM Mg^2+, 50 mM Tris, 3 units/mL adenosine deaminase, and 1 mM EDTA, at pH 8.0 (4° C.). […] Incubations were terminated by rapid filtration over Whatman GF/B filters, using a Brandell cell harvester (Brandell, Gaithersburg, MD). The tubes were rinsed three times with 3 mL buffer each. At least five different concentrations of competitor, spanning 3 orders of magnitude adjusted appropriately for the IC50 of each compound, were used. IC50 values, calculated with the nonlinear regression method implemented in the InPlot program (Graph-PAD, San Diego, Calif.), were converted to apparent Ki values using the Cheng-Prusoff equation (Cheng et al., Biochem.

A1 receptors = biological target: T2, A1 receptors (Rattus norvegicus, UniProt P25099); test: Radioligand binding, [3H]R-PIA, rat cerebral cortex membranes
T2 construct: A1 receptors from rat cerebral cortex membranes; from tissue; host or cells: rat cerebral cortex membranes
T2 sequence (P25099 1-326): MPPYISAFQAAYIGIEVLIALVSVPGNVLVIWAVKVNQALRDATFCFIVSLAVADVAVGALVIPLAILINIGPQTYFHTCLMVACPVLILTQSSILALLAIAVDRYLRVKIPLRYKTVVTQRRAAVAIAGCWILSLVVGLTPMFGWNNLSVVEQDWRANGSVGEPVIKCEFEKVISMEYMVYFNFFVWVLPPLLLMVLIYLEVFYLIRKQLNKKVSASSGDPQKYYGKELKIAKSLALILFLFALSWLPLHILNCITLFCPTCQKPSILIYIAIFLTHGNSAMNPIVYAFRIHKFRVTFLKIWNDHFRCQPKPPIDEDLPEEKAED
Method: Radioligand binding studies. Binding of [^3H]R-N^6-phenylisopropyladenosine ([^3H]R-PIA) to A1 receptors from rat cerebral cortex membranes and of [^3H]-2-[4-[(2-carboxyethyl)phenyl]ethylamino]-5′-N-ethylcarbamoyladenosine ([^3H]CGS 21680) to A2A receptors from rat striatal membranes was performed as described previously (Schwabe et al., Naunyn Schmiedeberg Arch. Pharmacol. 313:179-187, 1980; Jarvis et al., J. Pharmacol. Exp. Ther. 251:888-893, 1989) Adenosine deaminase (3 units/mL) was present during the preparation of the brain membranes, in a pre-incubation of 30 min at 30° C., and during the incubation with the radioligands. Nonspecific binding was determined in the presence of 10 μM (A1 receptors) or 20 μM (A2A receptors)2-chloroadenosine.
All non-radioactive compounds were initially dissolved in DMSO, and diluted with buffer to the final concentration, where the amount of DMSO never exceeded 1%. Incubations were terminated by rapid filtration over Whatman GF/B filters, using a Brandell cell harvester (Brandell, Gaithersburg, MD). The tubes were rinsed three times with 3 mL buffer each.
At least five different concentrations of competitor, spanning 3 orders of magnitude adjusted appropriately for the IC50 of each compound, were used.

[5] = test system: HCE (human ciliary epithelial) cell line, NPE cells; test: Cell volume (shrinkage) of NPE cells in isosmotic solution, Coulter Counter, 5 μM gramicidin; format: cell-based; conditions: 300 nM MRS-1097, 100 nM MRS-1191, 100 nM MRS-1523, 10 μM adenosine
Method: A 0.5-ml aliquot of the HCE cell suspension in DMEM was added to 20 ml of each test solution, which contained (in mM): 110.0 NaCl, 15.0HEPES [4-(2-hydroxyethyl)-1-piperazineethanesulfonic acid], 2.5 CaCl2, 1.2 MgCl2, 4.7 KCl, 1.2 KH2PO4, 30.0 NaHCO3, and 10.0 glucose, at a pH of 7.4 and osmolality of 298-305 mOsm. Parallel aliquots of cells were studied on the same day. One aliquot usually served as a control, and the others were exposed to different experimental conditions at the time of suspension. The same amount of solvent vehicle (dimethylformamide, DMSO or ethanol) was always added to the control and experimental aliquots. The sequence of studying the suspensions was varied to preclude systematic time-dependent artifacts (Civan et al., Exp. Eye Res. 54:181-191, 1992).
Cell volumes of isosmotic suspensions were measured with a Coulter Counter (model ZBI-Channelyzer II), using a 100-μm aperture (Civan et al., supra., 1994). As previously described (Wax et al., supra., 1993), the cell volume (vC) of the suspension was taken as the peak of the distribution function. Cell shrinkage was fit as a function of time (t) to a monoexponential function:
vC=v∞+(v0−v∞)−[e^−(t−t^0^)/τ] {1}
where v∞ is the steady-state cell volume, v0 is the cell volume at the first point (t0) of the time course to be fit, and τ is the time constant of the shrinkage. For purposes of data reduction, the data were normalized to the first time point, taken to be 100% isotonic volume. Fits were obtained by nonlinear least-squares regression analysis, permitting both v∞and τ to be variables.
In order to differentiate among these receptors, the experiments were repeated in the present study using a series of agonists and antagonists selective for these receptors. As we wished to identify the effects of these receptors specifically on Cl^− channels, 5 μM gramicidin D was included in all solutions to eliminate any potential contribution from K^+ channels. This ionophore readily partitions into plasma membranes to form a cation-selective pore, and is widely used for studying volume regulation (Hoffmann et al., in Interaction of Cell Volume and Cell Function, Lang et al., eds., Springer, Heidelberg, Germany, pp. 188-248, (ACEP Series 14), 1993)). Under these conditions, release of cell Cl^− becomes the rate-limiting factor in both hypo-(Civan et al., Exp. Eye Res. 54:181-191, 1992) and isoosmotic cell shrinkage (Carre et al., supra., 1997).

human A2 receptors = conditions: read-out: Ki for binding to human A2 receptors; cited from earlier work
human A3 receptor [6] = biological target: T1, human A3 receptor; conditions: read-out: Ki for binding to human A3 receptors; cited from earlier work
[7] = test system: HCE (human ciliary epithelial) cell line, NPE cells; conditions: read-out: EC50 for isoosmotic shrinkage of cultured human NPE cells; cited from earlier work

SMILES: Nc1ncnc2c1ncn2[C@@H]1O[C@H](COP(=O)(O)OP(=O)(O)OP(=O)(O)O)[C@@H](O)[C@H]1O [ATP]
steady-state cell volume (v∞) ([1]; 3 μM ATP alone, FIG. 8B): 98.0±0.4% | time constant of the shrinkage (τ) ([1]; 3 μM ATP alone, FIG. 8B): 10.8 ± 4.9 min | steady-state cell volume (v∞) ([1]; 10 μM ATP alone, FIG. 8A): 94.3±0.3% | time constant of the shrinkage (τ) ([1]; 10 μM ATP alone, FIG. 8A): 2.8 ± 0.7 min | steady-state cell volume (v∞) ([1]; 10 μM ATP alone, FIG. 8B): 97.2±0.3% | time constant of the shrinkage (τ) ([1]; 10 μM ATP alone, FIG. 8B): 1.6 ± 1.0 min | steady-state cell volume (v∞) ([1]; 10 μM ATP alone, FIG. 10A): 97.2±0.3% | time constant of the shrinkage (τ) ([1]; 10 μM ATP alone, FIG. 10A): 1.6 ± 1.0 min | steady-state cell volume (v∞) ([1]; 100 μM ATP alone, FIG. 8A): 94.3±0.3% | time constant of the shrinkage (τ) ([1]; 100 μM ATP alone, FIG. 8A): 2.8 ± 0.7 min | steady-state cell volume (v∞) ([1]; 100 μM ATP alone, FIG. 13A): 94.9±1.0% | time constant of the shrinkage (τ) ([1]; 100 μM ATP alone, FIG. 13A): 45.2 ± 14.0 min | steady-state cell volume (v∞) ([1]; 100 μM ATP alone, FIG. 13B): 87.5±1.8% | time constant of the shrinkage (τ) ([1]; 100 μM ATP alone, FIG. 13B): 45.2 ± 14.0 min | steady-state cell volume (v∞) ([1]; 100 μM ATP alone, FIG. 13C): 93.9±1.7% | time constant of the shrinkage (τ) ([1]; 100 μM ATP alone, FIG. 13C): 34.8 ± 13.8 min | steady-state cell volume (v∞) ([1]; 100 μM ATP alone, FIG. 14B): 96.8±0.5% | time constant of the shrinkage (τ) ([1]; 100 μM ATP alone, FIG. 14B): 8.3 ± 3.7 min | steady-state cell volume (v∞) ([1]; 10 mM ATP alone, FIG. 10A): 97.7±0.2% | time constant of the shrinkage (τ) ([1]; 10 mM ATP alone, FIG. 10A): 2.2 ± 0.8 min | share of volumetric studies in which ATP alone produced shrinkage ([1]; ATP alone): approximately 15% | EC50 ([1]; in the presence of tamoxifen, read-out: ATP concentration eliciting approximately half-maximal response): ~3000 nM | effect of ATP on whole-cell current ([2]; 1 mM ATP, holding potential −60 mV, cultured bovine PE cell): reversible and reproducible increases in inward current | trials with current activated by ATP ([2]; cultured PE cells): 10/17 | trials with current activated by ATP ([2]; fresh bovine PE cells): 3/9

SMILES: CCOC(=O)c1c(CC)c(C(=O)SCC)c(CC)[n+](C)c1-c1ccccc1.[I-] [Compound 11, 1-Methyl-2,4-Diethyl-3-(ethylsulfanylcarbonyl)-5-ethyloxycarbonyl-6-phenylpyridinium Iodide]
KB relative to the Ki value in binding to human A3 receptors (human A3 receptor [3]): approximately 1.8 times | shift of the IB-MECA concentration response curve to the right (human A3 receptor [3]; 10 μM of 11): 26 fold | Kb (human A3 receptor [3]; read-out: KB value (Schild analysis)): 399 nM | solubility (Water solubility; de-ionized water, water, thermodynamic from solid): 42.8 mM | water solubility (Water solubility; listed as MRS 1649): 43 mM | Ki (human A3 receptor [4]): 219 nM

SMILES: CCOC(=O)c1c(CC)c(C(=O)SCC)c(CC)[n+](C)c1C1CCCC1 [Compound 23, 1-Methyl-2,4-diethyl-3-(ethylsulfanylcarbonyl)-5-ethyloxycarbonyl-6-cyclopentylpyridinium Iodide]
Ki (A1 receptors): 11.5 µM | Ki (human A3 receptor [4]): 695 nM

displacement at rat A1 receptors (A1 receptors; at 100 μM): 34 ±1% | Ki (human A3 receptor [4]): 6400 ± 780 nM
SMILES: CCOC(=O)C1=C(C2CCCC2)N(C)C(CC)=C(C(=O)SCC)C1CC (stereo not shown) [Compound 25, 1-Methyl-2,4-diethyl-3-(ethylsulfanylcarbonyl)-5-ethyloxycarbonyl-6-cyclopentyl-1,4-dihydropyridine]

SMILES: CCCOC(=O)c1c(-c2ccccc2)nc(CC)c(C(=O)SCC)c1CCC [MRS-1523]
effect of A3 antagonist on adenosine-stimulated isotonic shrinkage [5]: prevented the characteristic shrinkage | effect of A3 antagonist on adenosine-stimulated isotonic shrinkage ([5]; listed as MRS 1523): eliminated the actions of adenosine; also recorded: blocked the shrinkage | Ki (human A2 receptors): 2050 nM | Ki (human A3 receptor [6]): 19 nM

SMILES: O=C(O)c1cc([N+](=O)[O-])ccc1NCCCc1ccccc1 [NPPB, 5-nitro-2-(3-phenylpropylamino)-benzoate]
effect of Cl− channel blocker on ATP, tamoxifen-activated shrinkage ([1]; DIDS 500 μM, NPPB 100 μM): inhibited the volume reduction; also recorded: abolished the synergistic shrinkage | reduction of the ATP-enhanced currents ([2]; 100 μM NPPB, −60 mV): 56±11% | effect of NPPB on ATP-stimulated current ([2]; FIG. 9B): partially inhibited

SMILES: Nc1ncnc2c1ncn2[C@@H]1O[C@H](CO)[C@@H](O)[C@H]1O [adenosine]
EC50 [7]: 3 to 10 µM

From US6528516B1, “Methods for reducing intraocular pressure using A3 adenosine receptor antagonists” (Trustees of the University of Pennsylvania, The Center for …, priority 1998, dated 2003)
